{"source": "paper PMC5218591", "about": "(Bioorganic & medicinal chemistry, 2016)", "target": "GPR88 (Homo sapiens, UniProt Q9GZN0)", "sequence (Q9GZN0 whole entry, species assumed)": "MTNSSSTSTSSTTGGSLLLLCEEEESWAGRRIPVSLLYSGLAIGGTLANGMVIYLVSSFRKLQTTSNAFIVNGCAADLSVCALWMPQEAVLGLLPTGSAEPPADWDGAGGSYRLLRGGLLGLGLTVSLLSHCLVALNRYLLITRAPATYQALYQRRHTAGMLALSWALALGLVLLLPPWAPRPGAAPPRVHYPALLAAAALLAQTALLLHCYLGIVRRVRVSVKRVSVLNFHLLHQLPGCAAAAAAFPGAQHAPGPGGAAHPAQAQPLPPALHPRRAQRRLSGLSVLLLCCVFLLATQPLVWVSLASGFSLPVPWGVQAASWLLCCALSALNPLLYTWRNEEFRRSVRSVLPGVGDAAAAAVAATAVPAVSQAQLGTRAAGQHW", "settings": "for fold less potent than 3: versus 3; for agonist activity at GPR88 (in words): purified compounds, Lance cAMP assay", "data": [{"smiles": "CCCC(C)COc1ccc([C@@H](NC(=O)Cc2ccccc2)C(=O)OC)cc1", "note": "(stereo partly drawn) [Compound 13a, Methyl (2R)-2-[4-(2-methylpentyloxy)phenyl]-2-(2-phenylacetamido)acetate]", "values": [{"measurement": "fold less potent than 11a", "setting": "versus 11a", "result": 5, "unit": "fold"}]}, {"smiles": "CCCC(C)COc1ccc([C@@H](NC(=O)[C@@H](C)c2ccccc2)C(=O)OC)cc1", "note": "(stereo partly drawn) [Compound 11a, Methyl (2R)-2-[4-(2-methylpentyloxy)phenyl]-2-[(S)-2-phenylpropanamido]acetate]", "values": [{"measurement": "fold less potent than 3", "result": "approximately 2.5 fold"}]}, {"smiles": "CCCC(C)COc1ccc([C@@H](NC(=O)[C@H](C)c2ccccc2)C(=O)OC)cc1", "note": "(some centres unmarked) [Compound 13az]", "values": [{"measurement": "agonist activity as percentage of TR-FRET signal of the control compound 11a", "setting": "library screen at 1 μM final, crude compounds, 11a = 100%, Figure 2", "result": "less potent than the (S)-isomer"}]}, {"smiles": "CCCC(C)COc1ccc([C@@H](NC(=O)C(C)C2CCCCC2)C(=O)OC)cc1", "note": "(stereo partly drawn) [Compound 12d, Methyl (2R)-2-[4-(2-methylpentyloxy)phenyl]-2-[(R,S)-2-cyclohexylpropanamido]-acetate]", "values": [{"measurement": "agonist activity at GPR88 (in words)", "result": "completely inactive"}]}, {"smiles": "CCCC(C)COc1ccc([C@@H](NC(=O)[C@@H](C)c2ccccc2)C(=O)O)cc1", "note": "(stereo partly drawn) [Compound 11b, (2R)-2-[4-(2-Methylpentyloxy)phenyl]-2-[(S)-2-phenylpropanamido]acetic acid]", "values": [{"measurement": "agonist activity at GPR88 (in words)", "result": "completely inactive"}]}, {"smiles": "CCCC(C)COc1ccc([C@H](CO)NC(=O)Cc2ccccc2)cc1", "note": "(stereo partly drawn) [Compound 12a, N-{(1R)-2-Hydroxy-1-[4-(2-methylpentyloxy)phenyl]ethyl}-2-phenylacetamide]", "values": [{"measurement": "fold less potent than 3", "result": "approximately 2 fold"}]}, {"smiles": "CCCC(C)COc1ccc([C@@H](NC(=O)[C@@H](CC)c2ccccc2)C(=O)OC)cc1", "note": "(stereo partly drawn) [Compound 13aw, Methyl (2R)-2-[4-(2-methylpentyloxy)phenyl]-2-[(S)-2-phenylbutanamido]acetate]", "values": [{"measurement": "agonist activity at GPR88 (in words)", "result": "equipotent with 11a"}, {"measurement": "fold more potent than 13a", "setting": "versus 13a", "result": 4.5, "unit": "fold"}]}]}
